Data reported in the supplement of paper PMC4862054.

Experiments:
Settings in all cases: incubation time: 72 h
[1] = test system: DU-4475; experiment: normalised response (% of control), CellTox Green; higher = less cell death (100 = DMSO, 0 = benzethonium chloride kill control)
In short: (§1)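 Compound was dispensed into 384-well plates at 5 concentrations in 10-fold steps spanning a 10,000-fold range specific to that compound. Breast cancer cell lines were added as 20 µl suspension and left for 72 h before CellTox Green fluorescence (485/520 nm) and then CellTiter-Glo luminescence, read after 10 min at room temperature. Each reported value is the normalised signal at one concentration, with 0.1 % DMSO set at 100 and a positive kill control at 0 on each plate.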

[2] = test system: BT-549; experiment: as above
In short: as §1

[3] = test system: HDQ-P1; experiment: as above
In short: as §1

[4] = test system: HCC1143; experiment: as above
In short: as §1

[5] = test system: CAL-148; experiment: as above
In short: as §1

[6] = test system: MDA-MB-436; experiment: as above
In short: as §1

[7] = test system: MCF-10A; experiment: as above
In short: as §1

[8] = test system: MDA-MB-453; experiment: as above
In short: as §1

[9] = test system: HCC1599; experiment: as above
In short: as §1

[10] = test system: CAL-85-1; experiment: as above
In short: as §1

[11] = test system: CAL-120; experiment: as above
In short: as §1

[12] = test system: MDA-MB-468; experiment: as above
In short: as §1

[13] = test system: Hs578T; experiment: as above
In short: as §1

[14] = test system: CAL-51; experiment: as above
In short: as §1

[15] = test system: MFM-223; experiment: as above
In short: as §1

[16] = test system: BT-474; experiment: as above
In short: as §1

[17] = test system: MDA-MB-231; experiment: as above
In short: as §1

[18] = test system: DU-4475; experiment: normalised response (% of control), CellTiter-Glo; higher = more viable cells (100 = DMSO, 0 = benzethonium chloride kill control)
In short: as §1

[19] = test system: BT-549; experiment: as above
In short: as §1

[20] = test system: HDQ-P1; experiment: as above
In short: as §1

[21] = test system: HCC1143; experiment: as above
In short: as §1

[22] = test system: CAL-148; experiment: as above
In short: as §1

[23] = test system: MDA-MB-436; experiment: as above
In short: as §1

[24] = test system: MCF-10A; experiment: as above
In short: as §1

[25] = test system: SK-BR-3; experiment: as above
In short: as §1

[26] = test system: HCC1937; experiment: as above
In short: as §1

[27] = test system: MDA-MB-453; experiment: as above
In short: as §1

[28] = test system: HCC1599; experiment: as above
In short: as §1

[29] = test system: CAL-85-1; experiment: as above
In short: as §1

[30] = test system: CAL-120; experiment: as above
In short: as §1

[31] = test system: MDA-MB-468; experiment: as above
In short: as §1

[32] = test system: Hs578T; experiment: as above
In short: as §1

[33] = test system: CAL-51; experiment: as above
In short: as §1

[34] = test system: MFM-223; experiment: as above
In short: as §1

[35] = test system: BT-474; experiment: as above
In short: as §1

[36] = test system: MDA-MB-231; experiment: as above
In short: as §1

[37] = test system: HCC1937; experiment: normalised response (% of control), CellTox Green; higher = less cell death (100 = DMSO, 0 = benzethonium chloride kill control)
In short: as §1

Molecule CC1(C)CCC(CN2CCN(c3ccc(C(=O)NS(=O)(=O)c4ccc(NCC5CCOCC5)c([N+](=O)[O-])c4)c(Oc4cnc5[nH]ccc5c4)c3)CC2)=C(c2ccc(Cl)cc2)C1 [ABT-199] (1000 nM) has a normalised response [1] of 98%, a normalised response [2] of 76.5% and a normalised response [3] of 104%. It also gave a normalised response [4] of 74.1%, a normalised response [5] of 71.6% and a normalised response [6] of 85%. It also gave a normalised response [7] of 112%, a normalised response [8] of 99.2% and a normalised response [9] of 92.1%. The normalised response [10] was 102%, the normalised response [11] was 89.8% and the normalised response [12] was 66.1%. It also gave a normalised response [13] of 105%, a normalised response [14] of 87.8% and a normalised response [15] of 99.2%. For the same molecule, the normalised response [16] was 99.9%, the normalised response [17] was 102% and the normalised response [18] was 90.6%. For the same molecule, the normalised response [19] was 101%, the normalised response [20] was 97.4% and the normalised response [21] was 101%. For the same molecule, the normalised response [22] was 105%, the normalised response [23] was 94.8% and the normalised response [24] was 96.9%. It also gave a normalised response [25] of 107%, a normalised response [26] of 103% and a normalised response [27] of 102%. The normalised response [28] was 105%, the normalised response [29] was 96.9% and the normalised response [30] was 99.5%. For the same molecule, the normalised response [31] was 93.6%, the normalised response [32] was 98.7% and the normalised response [33] was 69.8%. The normalised response [34] was 94.5%, the normalised response [35] was 95.4% and the normalised response [36] was 99.3%.
Nc1ncn([C@@H]2O[C@H](CO)[C@@H](O)[C@H]2O)c(=O)n1 [Azacitidine] (10 nM) showed a normalised response [18] of 102%, a normalised response [19] of 93.4% and a normalised response [20] of 99.5%. The normalised response [21] was 99.4%, the normalised response [22] was 92% and the normalised response [23] was 105%. The normalised response [24] was 103%, the normalised response [25] was 110% and the normalised response [26] was 101%. The normalised response [27] was 105%, the normalised response [28] was 105% and the normalised response [29] was 101%. For the same molecule, the normalised response [30] was 99.3%, the normalised response [31] was 103% and the normalised response [32] was 97.5%. For the same molecule, the normalised response [33] was 113%, the normalised response [34] was 96.2% and the normalised response [35] was 99.9%. The normalised response [36] was 94.3%.
For Oc1ncnc2[nH]ncc12 [Allopurinol] (10 nM), the normalised response [18] was 106%, the normalised response [19] was 101% and the normalised response [20] was 99.5%. It also gave a normalised response [21] of 103%, a normalised response [22] of 107% and a normalised response [23] of 96.5%. The normalised response [24] was 107%, the normalised response [25] was 106% and the normalised response [26] was 99.2%. The normalised response [27] was 109%, the normalised response [28] was 104% and the normalised response [29] was 98.6%. It also gave a normalised response [30] of 99%, a normalised response [31] of 99% and a normalised response [32] of 97.5%. It also gave a normalised response [33] of 98.1%, a normalised response [34] of 108% and a normalised response [35] of 102%. It also gave a normalised response [36] of 99.6%.
Molecule Cc1ccc([N+](=O)[O-])cc1S(=O)(=O)N(C)/N=C/c1cnc2ccc(Br)cn12 [PIK-75] (1000 nM) has a normalised response [1] of 79%, a normalised response [2] of 35.8% and a normalised response [3] of 38.4%. The normalised response [4] was 56.9%, the normalised response [5] was 86.7% and the normalised response [6] was 102%. The normalised response [7] was -12.4%, the normalised response [37] was 99.3% and the normalised response [8] was 61.6%. It also gave a normalised response [9] of 62.1%, a normalised response [10] of -12.6% and a normalised response [11] of 86.8%. It also gave a normalised response [12] of -15.6%, a normalised response [13] of 42.7% and a normalised response [14] of 70.6%. The normalised response [15] was 44.6%, the normalised response [16] was 6.93% and the normalised response [17] was -17.8%. It also gave a normalised response [18] of 4.76%, a normalised response [19] of 2.37% and a normalised response [20] of 16.7%. For the same molecule, the normalised response [21] was 13.3%, the normalised response [22] was 48.8% and the normalised response [23] was 15.9%. For the same molecule, the normalised response [24] was 1.81%, the normalised response [25] was 0.25% and the normalised response [26] was 21.6%. For the same molecule, the normalised response [27] was 4.17%, the normalised response [28] was 6.38% and the normalised response [29] was 1.64%. For the same molecule, the normalised response [30] was 28.5%, the normalised response [31] was 2.19% and the normalised response [32] was 3.83%. The normalised response [33] was 11.5%, the normalised response [34] was 7.31% and the normalised response [35] was 9.85%. It also gave a normalised response [36] of 1.8%.
Molecule C[C@]1(O)C[C@@H](c2nc(-c3ccc4ccc(-c5ccccc5)nc4c3)c3c(N)nccn32)C1 [Linsitinib] (10 nM) has a normalised response [18] of 94.9%, a normalised response [19] of 94.4% and a normalised response [20] of 99%. For the same molecule, the normalised response [21] was 96.1%, the normalised response [22] was 85.6% and the normalised response [23] was 89.2%. The normalised response [24] was 88.9%, the normalised response [25] was 76.1% and the normalised response [26] was 101%. It also gave a normalised response [27] of 99.3%, a normalised response [28] of 78.5% and a normalised response [29] of 95%. The normalised response [30] was 102%, the normalised response [31] was 90.8% and the normalised response [32] was 96.1%. The normalised response [33] was 92.4%, the normalised response [34] was 92.8% and the normalised response [35] was 93.7%. For the same molecule, the normalised response [36] was 94.8%.
Cn1cnc2c(F)c(Nc3ccc(Br)cc3Cl)c(C(=O)NOCCO)cc21 [Selumetinib] (10 nM) gave a normalised response [18] of 95.1%, a normalised response [19] of 99.9% and a normalised response [20] of 86.6%. For the same molecule, the normalised response [21] was 91%, the normalised response [22] was 90.6% and the normalised response [23] was 96.3%. It also gave a normalised response [24] of 77.4%, a normalised response [25] of 90.6% and a normalised response [26] of 97.3%. The normalised response [27] was 96.8%, the normalised response [28] was 95% and the normalised response [29] was 107%. The normalised response [30] was 93%, the normalised response [31] was 94.8% and the normalised response [32] was 99.4%. It also gave a normalised response [33] of 107%, a normalised response [34] of 90.8% and a normalised response [35] of 89.8%. The normalised response [36] was 97.2%.
